According to paper PMC8880564, “Design, Synthesis, and Biological Evaluation of a Novel VEGFR-2 Inhibitor Based on a 1,2,5-Oxadiazole-2-Oxide Scaffold with MAPK Signaling Pathway Inhibition” (Pharmaceuticals, 2022):

How the values were obtained:
Assay in all cases: NCI-60 one-dose SRB screening
Assay type in all cases: cell-based
ACHN = conditions: Homo sapiens, Renal Cancer, 10 µM one dose, 48 h, read-out: growth percentage
Description: (§1) The structures of the synthesized compounds 6a–h, 12a–c, 11, 13a–c, and 14a–c were submitted to the National Cancer Institute’s Developmental Therapeutics Program (NCI-DTP), and all of them were selected for preliminary in vitro anticancer activity screening against NCI-59 human cancer cell lines at a concentration of 10 µM, using the sulforhodamine B (SRB) assay to determine the growth percentage and cell viability.
(§2) The in vitro NCI-60 cell line screening assay was conducted at the National Cancer Institute (NCI), Bethesda, USA against 59 cancer cell lines representing 9 types of cancers, as reported earlier. Briefly, the human cancer cell lines were grown in RPMI 1640 medium containing 5% fetal bovine serum and 2 mM L-glutamine and inoculated into 96-well microtiter plates in 100 μL (5000 to 40,000 cells/well). Then, the plates were incubated at 37 °C, 5% CO2, 95% air, and 100% relative humidity for 24 h. After that, two plates of each cell line were fixed in situ with TCA, to represent cell population at time zero (Tz). The tested compounds were dissolved in DMSO at 400-fold and added so that the final concentration became 10 μM. The plates were then incubated for an additional 48 h followed by the addition of cold TCA to terminate the assay in case of adherent cells. Then, the cells were fixed in situ by cold 50% (w/v) TCA (50 μL; final concentration, 10% TCA) and incubated for 1 h at 4 °C. After discarding the supernatant, the plates were washed 5 times with tap water and air dried. Sulforhodamine B (SRB) solution (100 μL) at 0.4% (w/v) in 1% HOAc was added to each well, and plates were incubated for 10 min. at rt. Then, washing with 1% acetic acid was conducted 5 times to remove the unbound dye followed by air drying. After that, 10 mM trizma base was added to solubilize the bound stain, and the absorbance was read on an automated plate reader at a wavelength of 515 nm. On the other hand, the methodology for suspension cells was the same except that 50 μL of 80% TCA (final concentration, 16% TCA) was gently added to terminate the assay by fixing settled cells at the bottom of the wells. Percentage growth inhibition (GI%) was calculated as follows:
(§3) Growth percentage=Ti (test growth in the presence of compound at 10 µM )−Tz (time zero)/C (control growth)−Tz (time zero)×100 for Ti ≥ Tz;
(§4) Growth percentage=Ti (test growth in the presence of compound at 10 µM )−Tz (time zero)/Tz (time zero)×100 for Ti < Tz.
(§5) where values of 100, 40, 0, −40, and −100 mean no GI, 60% GI, no net G, 40% lethality, and all cells are dead, respectively.

CAKI-1 = conditions: Homo sapiens, CAKI-1, Renal Cancer, 10 µM one dose, 48 h, read-out: growth percentage
Description: as §1, §2, §3, §4, §5

CCRF-CEM = conditions: Homo sapiens, Leukemia, 10 µM one dose, 48 h, read-out: growth percentage
Description: as §1, §2, §3, §4, §5

COLO 205 = conditions: Homo sapiens, COLO 205, Colon Cancer, 10 µM one dose, 48 h, read-out: growth percentage
Description: as §1, §2, §3, §4, §5

HCT-116 = conditions: Homo sapiens, HCT-116, Colon Cancer, 10 µM one dose, 48 h, read-out: growth percentage
Description: as §1, §2, §3, §4, §5

HL-60(TB) = conditions: Homo sapiens, Leukemia, 10 µM one dose, 48 h, read-out: growth percentage
Description: as §1, §2, §3, §4, §5

HOP-62 = conditions: Homo sapiens, HOP-62, Non-Small Cell Lung Cancer, 10 µM one dose, 48 h, read-out: growth percentage
Description: as §1, §2, §3, §4, §5

HT29 = conditions: Homo sapiens, HT-29, HT29, Colon Cancer, 10 µM one dose, 48 h, read-out: growth percentage
Description: as §1, §2, §3, §4, §5

K-562 = conditions: Homo sapiens, K562, K-562, Leukemia, 10 µM one dose, 48 h, read-out: growth percentage
Description: as §1, §2, §3, §4, §5

MALME-3M = conditions: Homo sapiens, Melanoma, 10 µM one dose, 48 h, read-out: growth percentage
Description: as §1, §2, §3, §4, §5

MDA-MB-231/ATCC = conditions: Homo sapiens, Breast Cancer, 10 µM one dose, 48 h, read-out: growth percentage
Description: as §1, §2, §3, §4, §5

NCI-H226 = conditions: Homo sapiens, NCI-H226, Non-Small Cell Lung Cancer, 10 µM one dose, 48 h, read-out: growth percentage
Description: as §1, §2, §3, §4, §5

NCI-H322M = conditions: Homo sapiens, Non-Small Cell Lung Cancer, 10 µM one dose, 48 h, read-out: growth percentage
Description: as §1, §2, §3, §4, §5

NCI-H460 = conditions: Homo sapiens, NCI-H460, Non-Small Cell Lung Cancer, 10 µM one dose, 48 h, read-out: growth percentage
Description: as §1, §2, §3, §4, §5

OVCAR-3 = conditions: Homo sapiens, OVCAR-3, Ovarian Cancer, 10 µM one dose, 48 h, read-out: growth percentage
Description: as §1, §2, §3, §4, §5

OVCAR-5 = conditions: Homo sapiens, OVCAR-5, Ovarian Cancer, 10 µM one dose, 48 h, read-out: growth percentage
Description: as §1, §2, §3, §4, §5

SF-295 = conditions: Homo sapiens, SF-295, CNS Cancer, 10 µM one dose, 48 h, read-out: growth percentage
Description: as §1, §2, §3, §4, §5

SK-OV-3 = conditions: Homo sapiens, SK-OV-3, Ovarian Cancer, 10 µM one dose, 48 h, read-out: growth percentage
Description: as §1, §2, §3, §4, §5

SN12C = conditions: Homo sapiens, Renal Cancer, 10 µM one dose, 48 h, read-out: growth percentage
Description: as §1, §2, §3, §4, §5

SW-620 = conditions: Homo sapiens, SW-620, Colon Cancer, 10 µM one dose, 48 h, read-out: growth percentage
Description: as §1, §2, §3, §4, §5

U251 = conditions: Homo sapiens, U-251, U251, CNS Cancer, 10 µM one dose, 48 h, read-out: growth percentage
Description: as §1, §2, §3, §4, §5

UACC-257 = conditions: Homo sapiens, UACC-257, Melanoma, 10 µM one dose, 48 h, read-out: growth percentage
Description: as §1, §2, §3, §4, §5

| SMILES | activity at 10 µM (ACHN) | activity at 10 µM (CAKI-1) | activity at 10 µM (COLO 205) | activity at 10 µM (HCT-116) | activity at 10 µM (HOP-62) | activity at 10 µM (HT29) | activity at 10 µM (K-562) | activity at 10 µM (MALME-3M) | activity at 10 µM (MDA-MB-231/ATCC) | activity at 10 µM (NCI-H226) | activity at 10 µM (NCI-H322M) | activity at 10 µM (NCI-H460) | activity at 10 µM (OVCAR-3) | activity at 10 µM (OVCAR-5) | activity at 10 µM (SF-295) | activity at 10 µM (SK-OV-3) | activity at 10 µM (SN12C) | activity at 10 µM (SW-620) | activity at 10 µM (U251) | activity at 10 µM (UACC-257) | further results |
| --- | --- | --- | --- | --- | --- | --- | --- | --- | --- | --- | --- | --- | --- | --- | --- | --- | --- | --- | --- | --- | --- |
| [O-][n+]1onc(-c2ccccc2)c1COc1ccc(Nc2ncnc3c2cnn3-c2ccccc2)cc1 [6a, 4-phenyl-3-((4-((1-phenyl-1H-pyrazolo[3,4-d]pyrimidin-4-yl)amino)phenoxy)methyl)-1,2,5-oxadiazole 2-oxide] | 105% | 99.4% | 104% | 93% | 107% | 96% | 88% | 90% | 97.5% | 111% | 109% | 73.6% | 95.9% | 110% | 98.4% | 102% | 97.3% | 106% | 107% | 98.9% | activity at 10 µM (CCRF-CEM): 91%; activity at 10 µM (HL-60(TB)): 94.7% |
| Cc1nc(Nc2ccc(OCc3c(-c4ccccc4)no[n+]3[O-])cc2)c2cnn(-c3ccccc3)c2n1 [6b, 3-((4-((6-methyl-1-phenyl-1H-pyrazolo[3,4-d]pyrimidin-4-yl)amino)phenoxy)methyl)-4-phenyl-1,2,5-oxadiazole 2-oxide] | 105% | 87.6% | 114% | 99.2% | 103% | 106% | 111% | 99.3% | 106% | 94.7% | 99.5% | 111% | 109% | 106% | 97.1% | 110% | 101% | 120% | 104% | 101% | activity at 10 µM (CCRF-CEM): 102%; activity at 10 µM (HL-60(TB)): 122% |
| Cc1nn(-c2ccccc2)c2ncnc(Nc3ccc(OCc4c(-c5ccccc5)no[n+]4[O-])cc3)c12 [6c, 3-((4-((3-methyl-1-phenyl-1H-pyrazolo[3,4-d]pyrimidin-4-yl)amino)phenoxy)methyl)-4-phenyl-1,2,5-oxadiazole 2-oxide] | 97.3% | 86% | 116% | 81.8% | 105% | 93.2% | 90.2% | 98.2% | 95.7% | 97.3% | 91% | 109% | 105% | 104% | 99% | 104% | 87.9% | 107% | 97.2% | 105% | activity at 10 µM (CCRF-CEM): 97.4%; activity at 10 µM (HL-60(TB)): 119% |
| Cc1nc(Nc2ccc(OCc3c(-c4ccccc4)no[n+]3[O-])cc2)c2c(C)nn(-c3ccccc3)c2n1 [6d, 3-((4-((3,6-dimethyl-1-phenyl-1H-pyrazolo[3,4-d]pyrimidin-4-yl)amino)phenoxy)methyl)-4-phenyl-1,2,5-oxadiazole 2-oxide] | 95.5% | 101% | 107% | 104% | 107% | 119% | 99.3% | 101% | 101% | 101% | 99.9% | 112% | 114% | 101% | 108% | 109% | 98.4% | 119% | 106% | 109% | activity at 10 µM (CCRF-CEM): 113%; activity at 10 µM (HL-60(TB)): 111% |
| Cc1nn(-c2ccccc2)c2nc(CCl)[nH]c(=O)c12 [13b] | 90.2% | 99.6% | 110% | 24.9% | 98.3% | 106% | 19.2% | 2.09% | 88.4% | 111% | 103% | 102% | 97.4% | 110% | 109% | 105% | 95.7% | 85.1% | 93.9% | 98.8% | activity at 10 µM (HL-60(TB)): 33.1% |
| Cc1nn(-c2ccc(Br)cc2)c2nc(CCl)[nH]c(=O)c12 [13c] | 94.8% | 96.3% | 103% | 98.3% | 98.5% | 104% | 75.6% | -9.8% | 94.1% | 102% | 104% | 109% | 97.4% | 116% | 100% | 104% | 100% | 110% | 99.7% | 102% | activity at 10 µM (CCRF-CEM): 83.7% |
